Data on 52 molecules can be found in patent publication US20050176813A1, “Novel chalcone derivatives and uses thereof” (priority 2002, published 2005).

In one data set the target is Kv1.3 (Homo sapiens, UniProt P22001). Briefly: Kv1.3 channel block, estimated Kd (Table 1). Type of data set: binding. As to conditions: for Block phasic or not: Kv1.3.
[1] abbreviates: Kv1.3, end, read-out: Est. Kd, Kd end.
Where [2] appears, read: Kv1.3, peak, read-out: Est. Kd, Kd peak.

The structures appear in SMILES notation. Like-named read-outs stand apart in the source and are kept apart here.

Chain of Kv1.3 (P22001 whole entry): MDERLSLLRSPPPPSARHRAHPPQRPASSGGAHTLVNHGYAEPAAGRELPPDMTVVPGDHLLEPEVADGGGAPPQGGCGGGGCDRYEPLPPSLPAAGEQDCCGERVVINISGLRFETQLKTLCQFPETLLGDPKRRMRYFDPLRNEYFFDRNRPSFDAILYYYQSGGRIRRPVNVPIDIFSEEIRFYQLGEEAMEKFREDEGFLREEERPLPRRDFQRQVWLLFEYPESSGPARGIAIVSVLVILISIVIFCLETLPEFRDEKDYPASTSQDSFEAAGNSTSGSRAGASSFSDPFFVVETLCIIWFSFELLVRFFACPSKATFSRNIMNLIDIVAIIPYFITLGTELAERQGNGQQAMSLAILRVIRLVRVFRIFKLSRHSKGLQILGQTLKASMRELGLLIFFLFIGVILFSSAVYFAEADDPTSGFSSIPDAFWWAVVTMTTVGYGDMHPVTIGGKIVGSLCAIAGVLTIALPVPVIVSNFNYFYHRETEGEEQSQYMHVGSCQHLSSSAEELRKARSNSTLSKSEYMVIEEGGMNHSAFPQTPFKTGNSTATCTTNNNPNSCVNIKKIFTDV

What is called Kd is the constant that tells how readily two partners part at equilibrium. As for `COc1c(C(=O)CCc2ccccc2)c(O)c(OC)c2occc12` [Example 2], the Kd on Kv1.3 (setting [1]) is 0.3 µM; on Kv1.3 (setting [2]) it was 0.8 µM.

With `COc1c(O)c(C(=O)CCc2ccccc2)c(OC)c2c1OCC2` [Example 3], the Kd on Kv1.3 (setting [2]) is 2 µM.

Broadly, the melting point is the temperature of the solid-liquid transition. The molecule `CCCOc1ccc(/C=C/C(=O)c2c(O)c(OC)c3occc3c2OC)cc1` [Example 4] yielded a melting point of 74 to 75 °C. Also, the “Block phasic or not” value at Kv1.3 is recorded as “not phasic”. In addition, the Kd on Kv1.3 (setting [2]) is 45 µM.

For `COc1c(C(=O)/C=C/c2ccc(-c3ccccc3)cc2)c(O)c(OC)c2occc12` [Example 5], the melting point fell in the range of 122 to 124 °C. At Kv1.3, the “Block phasic or not” value is on record as “not phasic”. For the same molecule, the Kd at Kv1.3 (setting [2]) is 30 µM.

Take `COc1c(C(=O)/C=C/c2ccc(NC(C)=O)cc2)c(O)c(OC)c2occc12` [Example 6]: the melting point was in the range of 180 to 181 °C. The “Block phasic or not” value on Kv1.3 is “not phasic”. Besides, the Kd on Kv1.3 (setting [2]) was 35 µM.

As to `COc1c(C(=O)/C=C/c2ccccc2Cl)c(O)c(OC)c2occc12` [Example 7], the melting point was 160 to 161 °C. Besides, on Kv1.3, the “Block phasic or not” value was “not phasic”. Further, on Kv1.3 (setting [2]), the Kd was 12 µM.

On to `COc1c(C(=O)/C=C/c2cccc(Cl)c2)c(O)c(OC)c2occc12` [Example 8], for which, on Kv1.3, the “Block phasic or not” value is “not phasic”. Besides, the Kd on Kv1.3 (setting [2]) is 15 µM.

In the case of `COc1c(C(=O)/C=C/c2ccc(Cl)cc2)c(O)c(OC)c2occc12` [Example 9], the “Block phasic or not” value at Kv1.3 is recorded as “not phasic”. The dissociation constant Kd at Kv1.3 (setting [2]) was 7 µM.

In turn, `COc1c(C(=O)/C=C/c2cccc(C#N)c2)c(O)c(OC)c2occc12` [Example 10] registered a melting point of 182 to 183 °C. In addition, the “Block phasic or not” value on Kv1.3 is recorded as “not phasic”. Besides, the dissociation constant Kd on Kv1.3 (setting [2]) is 20 µM.

Consider `COc1c(C(=O)/C=C/c2ccc(C#N)cc2)c(O)c(OC)c2occc12` [Example 11], for which the melting point is 196 to 198 °C. For the same molecule, the “Block phasic or not” value at Kv1.3 is given as “not phasic”. The Kd at Kv1.3 (setting [2]) was 12 µM.

For the molecule `CCN(CC)CCOc1ccc(/C=C/C(=O)c2c(O)c(OC)c3occc3c2OC)cc1` [Example 12], the “Effect on Kv1.3” value at Kv1.3 (at 10 μM) was 10 μM no effect Not tested against other channels.

As to `CCN(CC)c1ccc(/C=C/C(=O)c2c(O)c(OC)c3occc3c2OC)cc1` [Example 13], the “Block phasic or not” value at Kv1.3 is recorded as “not phasic”. At Kv1.3 (setting [2]), the equilibrium dissociation constant (Kd) was 18 µM.

On to `CCOc1ccc(/C=C/C(=O)c2c(O)c(OC)c3occc3c2OC)cc1` [Example 14], for which the dissociation constant (Kd) at Kv1.3 (setting [1]) was 1.5 µM; at Kv1.3 (setting [2]) it was 10 µM.

`COc1c(C(=O)/C=C/c2ccccc2F)c(O)c(OC)c2occc12` [Example 15]: the Kd at Kv1.3 (setting [1]) was 12 µM; at Kv1.3 (setting [2]) it was 90 µM.

In turn, `COc1c(C(=O)/C=C/c2cccc(F)c2)c(O)c(OC)c2occc12` [Example 16] showed a melting point of 121 to 123 °C. Besides, at Kv1.3 (setting [1]), the Kd is 4 µM. At Kv1.3 (setting [2]), the Kd is 35 µM.

Regarding `COc1c(C(=O)/C=C/c2ccc(F)cc2)c(O)c(OC)c2occc12` [Example 17], the figures for the Kd on Kv1.3 (setting [1]) and at Kv1.3 (setting [2]) were 1 µM and 8 µM, respectively.

Consider `COc1c(C(=O)/C=C/c2ccc(O)cc2)c(O)c(OC)c2occc12` [Example 19], for which the dissociation constant (Kd) on Kv1.3 (setting [1]) is 0.9 µM; on Kv1.3 (setting [2]) it was 10 µM.

Take `COc1c(C(=O)/C=C/c2ccc(C(C)C)cc2)c(O)c(OC)c2occc12` [Example 20]: the “Block phasic or not” value on Kv1.3 is “not phasic”. Besides, on Kv1.3 (setting [2]), the Kd is 3 µM.

Regarding `COc1c(C(=O)/C=C/c2ccccc2C)c(O)c(OC)c2occc12` [Example 21], the “Block phasic or not” value on Kv1.3 is given as “not phasic”. For the same molecule, the Kd on Kv1.3 (setting [2]) was 2 µM.

For the molecule `COc1c(C(=O)/C=C/c2cccc(C)c2)c(O)c(OC)c2occc12` [Example 22], the melting point fell in the range of 97 to 98 °C. Further, the Kd on Kv1.3 (setting [1]) is 0.3 µM. At Kv1.3 (setting [2]), the dissociation constant Kd was 1.5 µM.

`COc1ccccc1/C=C/C(=O)c1c(O)c(OC)c2occc2c1OC` [Example 25] came in with a melting point of 117 to 118 °C. Moreover, the Kd at Kv1.3 (setting [1]) was 1 µM. For the same molecule, the dissociation constant (Kd) at Kv1.3 (setting [2]) was 5 µM.

Regarding `COc1c(C(=O)/C=C/c2ccc3c(c2)OCO3)c(O)c(OC)c2occc12` [Example 26], the melting point lay in the range of 139 to 140 °C. For the same molecule, the Kd on Kv1.3 (setting [1]) is 1.5 µM. Moreover, the Kd at Kv1.3 (setting [2]) was 9 µM.

`COc1c(C(=O)/C=C/c2ccccc2[N+](=O)[O-])c(O)c(OC)c2occc12` [Example 27] registered a melting point of 131 to 132 °C. On Kv1.3 (setting [1]), the Kd is 5 µM. For the same molecule, the Kd on Kv1.3 (setting [2]) was 15 µM.

The molecule `COc1c(C(=O)/C=C/c2cccc([N+](=O)[O-])c2)c(O)c(OC)c2occc12` [Example 28] registered a melting point of 97 to 98 °C. For the same molecule, the block at Kv1.3 (Kv1.3, at 5 μM) was 5-10% block at 5 μM.

For `COc1c(C(=O)/C=C/c2ccc([N+](=O)[O-])cc2)c(O)c(OC)c2occc12` [Example 29], the “Behaviour of stocks in the Kv1.3 test” value on Kv1.3 (stock solutions) is given as “Stocks precipitate”.

Regarding `COc1c(C(=O)/C=C/c2c(F)c(F)c(F)c(F)c2F)c(O)c(OC)c2occc12` [Example 30], the melting point was in the range of 112 to 114 °C. For the same molecule, the Kd on Kv1.3 (setting [1]) is 3.5 µM. On Kv1.3 (setting [2]), the dissociation constant (Kd) is 5 µM.

Molecule `COc1c(C(=O)/C=C/c2ccccc2C(F)(F)F)c(O)c(OC)c2occc12` [Example 31] yielded a melting point of 150 to 151 °C. For the same molecule, the “Block phasic or not” value at Kv1.3 is “not phasic”. Moreover, the Kd at Kv1.3 (setting [2]) was 40 µM.

As for `COc1c(C(=O)/C=C/c2cccc(C(F)(F)F)c2)c(O)c(OC)c2occc12` [Example 32], on Kv1.3, the “Block phasic or not” value is listed as “not phasic”. Further, the Kd on Kv1.3 (setting [2]) was 40 µM.

With `COc1c(C(=O)/C=C/c2ccc(C(F)(F)F)cc2)c(O)c(OC)c2occc12` [Example 33], the Kd at Kv1.3 (setting [1]) is 4 µM; on Kv1.3 (setting [2]) it was 10 µM.

For `COc1c(C(=O)/C=C/c2cccc(Oc3ccccc3)c2)c(O)c(OC)c2occc12` [Example 34], the “Effect on Kv1.3” value on Kv1.3 (at 5 μM) was “no effect at 5 μM Not tested against other channels”.

In turn, `COc1c(C(=O)/C=C/c2cccc(Oc3ccc(Cl)cc3)c2)c(O)c(OC)c2occc12` [Example 35] displayed a melting point of 107 to 108 °C. Moreover, the “Effect on Kv1.3” value on Kv1.3 (at 5 μM) is listed as “no effect at 5 μM Not tested against other channels”.

As for `COc1c(C(=O)/C=C/c2cccc(Oc3cccc(C(F)(F)F)c3)c2)c(O)c(OC)c2occc12` [Example 36], the “Effect on Kv1.3” value on Kv1.3 (at 5 μM) is recorded as “no effect at 5 μM Not tested against other channels”.

With `COc1c(C(=O)/C=C/c2cccc(Oc3ccc(C)cc3)c2)c(O)c(OC)c2occc12` [Example 37], the “Effect on Kv1.3” value on Kv1.3 (at 1 μM) is on record as “no effect at 1 μM Not tested against other channels”.

In the case of `COc1c(C(=O)/C=C/c2cccc3ccccc23)c(O)c(OC)c2occc12` [Example 38], the “Effect on Kv1.3” value on Kv1.3 (at 5 μM) is given as “no effect at 5 μM Not tested against other channels”.

In the case of `COc1c(C(=O)/C=C/c2ccc3ccccc3c2)c(O)c(OC)c2occc12` [Example 39], the “Effect on Kv1.3” value at Kv1.3 (at 5 μM) is reported as “no effect at 5 μM Not tested against other channels”.

Consider `COc1c(C(=O)/C=C/C=C/c2ccccc2)c(O)c(OC)c2occc12` [Example 40], for which the “Effect on Kv1.3” value on Kv1.3 (at 1 μM) was “no effect at 1 μM Not tested against other channels”.

With `COc1c(C(=O)/C=C/c2ccccc2C(=O)O)c(O)c(OC)c2occc12` [Example 41], the “Effect on Kv1.3” value at Kv1.3 (at 20 μM) was “no effect at 20 μM Not tested against other channels”.

For `COc1c(C(=O)/C=C/c2ccc(N(C)C)cc2)c(O)c(OC)c2occc12` [Example 42], the results for the dissociation constant (Kd) on Kv1.3 (setting [1]) and on Kv1.3 (setting [2]) were 5 µM and 14 µM, respectively.

For `COc1c(C(=O)/C=C/c2ccccc2O)c(O)c(OC)c2occc12` [Example 43], the results for the Kd at Kv1.3 (setting [1]) and on Kv1.3 (setting [2]) were 8 µM and 16 µM, respectively.

As for `COc1c(C(=O)/C=C/C=C/c2ccc(N(C)C)cc2)c(O)c(OC)c2occc12` [Example 44], on Kv1.3, the “Block phasic or not” value is “not phasic”. The Kd on Kv1.3 (setting [2]) was 22 µM.

In the case of `COc1c(C(=O)/C=C/c2ccco2)c(O)c(OC)c2occc12` [Example 45], the results for the Kd at Kv1.3 (setting [1]) and on Kv1.3 (setting [2]) were 4 µM and 20 µM, respectively.

In the case of `COc1c(C(=O)/C=C/c2ccc(CO)o2)c(O)c(OC)c2occc12` [Example 46], the melting point was 120 to 121 °C. In addition, the “Effect on Kv1.3” value at Kv1.3 (at 20 μM) is recorded as “no effect at 20 μM Not tested against other channels”.

Molecule `COc1c(C(=O)/C=C/c2c[nH]c3ccccc23)c(O)c(OC)c2occc12` [Example 47] gave a melting point of 138 to 140 °C. Besides, at Kv1.3 (at 5 μM), the “Effect on Kv1.3” value is “no effect at 5 μM Not tested against other channels”.

Regarding `COc1c(C(=O)/C=C/c2cccnc2)c(O)c(OC)c2occc12` [Example 48], the values for the Kd on Kv1.3 (setting [1]) and on Kv1.3 (setting [2]) were 9 µM and 20 µM, respectively.

Take `COc1c(C(=O)/C=C/c2ccncc2)c(O)c(OC)c2occc12` [Example 49]: the “Block phasic or not” value on Kv1.3 is “not phasic”. In addition, at Kv1.3 (setting [2]), the equilibrium dissociation constant (Kd) is 20 µM.

`COc1c(C(=O)/C=C/c2cccc(C)n2)c(O)c(OC)c2occc12` [Example 50] had a melting point of 86 to 87 °C. The “Block phasic or not” value on Kv1.3 is given as “not phasic”. Moreover, the Kd on Kv1.3 (setting [2]) was 12 µM.

Take `COc1c(C(=O)/C=C/c2ccc[nH]2)c(O)c(OC)c2occc12` [Example 51]: the Kd at Kv1.3 (setting [1]) is 9 µM; at Kv1.3 (setting [2]) it was 30 µM.

`COc1c(C(=O)/C=C/c2cccn2C)c(O)c(OC)c2occc12` [Example 52] had a melting point of 87 to 88 °C. The Kd on Kv1.3 (setting [1]) was 15 µM. Besides, the equilibrium dissociation constant (Kd) at Kv1.3 (setting [2]) is 40 µM.

Take `COc1c(C(=O)/C=C/c2sccc2C)c(O)c(OC)c2occc12` [Example 56]: the Kd was 6 µM on Kv1.3 (setting [1]) and 25 µM at Kv1.3 (setting [2]).

With `COc1c(C(=O)/C=C/c2ccc([N+](=O)[O-])s2)c(O)c(OC)c2occc12` [Example 57], the “Effect on Kv1.3” value on Kv1.3 (at 10 μM) is given as “No effect at 10 μM”.

For the molecule `COc1c(C(=O)/C=C/c2ccc3ccccc3n2)c(O)c(OC)c2occc12` [Example 58], at Kv1.3 (at 5 μM), the “Effect on Kv1.3” value is “No effect at 5 μM”.

On to `COc1c(C(=O)/C=C/c2ccccc2)c(OCc2ccccc2)c(OC)c2occc12` [Example 60], for which the Kd was 0.2 µM on Kv1.3 (setting [1]) and 10 µM at Kv1.3 (setting [2]).
